Common to all, as to experiment: Bliss interaction score (quartile over a dose matrix) (fitness difference); higher = more antagonism (negative = synergy)
One assay concerns B. subtilis 168. The gist of the method: (§1)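 The Bliss score is observed minus expected fitness, where expected fitness is the product of the single-drug fitness values inferred from the combination data. Fitness is the OD595 at the onset of stationary phase over the plate's robust no-drug mean, capped at 1. Scores are summarised by quartiles over technical, biological and donor/recipient replicates.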

The next assay relates to S. aureus Newman. The essentials: as §1
For the next assay, the system named is S. pneumoniae D39V. The essentials:
as §1

The test system of the next assay is S. aureus DSM 20231. The gist of the method: as §1

Molecules are shown by their SMILES.
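Note: first quartile when negative (synergy) and third quartile when positive (antagonism).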

For `CO[C@H]1/C=C/O[C@@]2(C)Oc3c(C)c(O)c4c(O)c(c(/C=N/N5CCN(C)CC5)c(O)c4c3C2=O)NC(=O)/C(C)=C\C=C\[C@H](C)[C@H](O)[C@@H](C)[C@@H](O)[C@@H](C)[C@H](OC(C)=O)[C@@H]1C` [Rifampicin] + CCCCCCCCCC(=O)N[C@@H]1[C@H]([C@@H]([C@H](O[C@H]1OC2=C3C=C4C=C2OC5=C(C=C(C=C5)[C@H]([C@H]6C(=O)N[C@@H](C7=C(C(=CC(=C7)O)OC8[C@H]([C@H]([C@@H]([C@H](O8)CO)O)O)O)C9=C(C=CC(=C9)[C@H](C(=O)N6)NC(=O)[C@@H]4NC(=O)[C@@H]1C2=CC(=CC(=C2)OC2=C(C=CC(=C2)[C@H](C(=O)N[C@H](CC2=CC(=C(O3)C=C2)Cl)C(=O)N1)N)O)O)O)C(=O)O)O[C@H]1[C@@H]([C@H]([C@@H]([C@H](O1)CO)O)O)NC(=O)C)Cl)CO)O)O [Teicoplanin], the Bliss interaction score in the assay with B. subtilis 168 (main component drawn) was 0.176; with S. aureus Newman (main component drawn), -0.0536; in the assay on S. pneumoniae D39V (main component drawn) it was 0.0769; in the assay with S. aureus DSM 20231 (main component drawn) it was -0.0357.
With `CO[C@H]1/C=C/O[C@@]2(C)Oc3c(C)c(O)c4c(O)c(c(/C=N/N5CCN(C)CC5)c(O)c4c3C2=O)NC(=O)/C(C)=C\C=C\[C@H](C)[C@H](O)[C@@H](C)[C@@H](O)[C@@H](C)[C@H](OC(C)=O)[C@@H]1C` [Rifampicin] + CC[C@H]1OC(=O)[C@H](C)C(=O)[C@H](C)[C@@H](O[C@@H]2O[C@H](C)C[C@H](N(C)C)[C@H]2O)[C@](C)(OC)C[C@@H](C)C(=O)[C@H](C)[C@H]2N(CCCCn3cnc(-c4cccnc4)c3)C(=O)O[C@]12C [Telithromycin], the Bliss interaction score with B. subtilis 168 is 0.0808; with S. aureus Newman, 0.0171; in the assay on S. pneumoniae D39V, -0.157; in the assay with S. aureus DSM 20231, 0.0559.
The matching figures for `CO[C@H]1/C=C/O[C@@]2(C)Oc3c(C)c(O)c4c(O)c(c(/C=N/N5CCN(C)CC5)c(O)c4c3C2=O)NC(=O)/C(C)=C\C=C\[C@H](C)[C@H](O)[C@@H](C)[C@@H](O)[C@@H](C)[C@H](OC(C)=O)[C@@H]1C` [Rifampicin] + COc1cc(Cc2cnc(N)nc2N)cc(OC)c1OC [Trimethoprim]: 0.131, -0.0473, 0.0931 and -0.0578.
For the compound `CO[C@H]1/C=C/O[C@@]2(C)Oc3c(C)c(O)c4c(O)c(c(/C=N/N5CCN(C)CC5)c(O)c4c3C2=O)NC(=O)/C(C)=C\C=C\[C@H](C)[C@H](O)[C@@H](C)[C@@H](O)[C@@H](C)[C@H](OC(C)=O)[C@@H]1C` [Rifampicin] + Oc1cc(Cl)ccc1Oc1ccc(Cl)cc1Cl [Triclosan], the Bliss interaction score is 0.0445 with B. subtilis 168, 0.0206 with S. aureus Newman, -0.0563 in the assay on S. pneumoniae D39V and -0.0595 in the assay with S. aureus DSM 20231.
On the same counts, the results for `CN[C@@H]1[C@H](O)[C@H](NC)[C@H]2O[C@@]3(O)C(=O)C[C@@H](C)O[C@H]3O[C@@H]2[C@H]1O` [Spectinomycin] + CC[C@H]1OC(=O)[C@H](C)C(=O)[C@H](C)[C@@H](O[C@@H]2O[C@H](C)C[C@H](N(C)C)[C@H]2O)[C@](C)(OC)C[C@@H](C)C(=O)[C@H](C)[C@H]2N(CCCCn3cnc(-c4cccnc4)c3)C(=O)O[C@]12C [Telithromycin] are 0.038, -0.0947, -0.14 and -0.0419.
On the same counts, the results for `CN[C@@H]1[C@H](O)[C@H](NC)[C@H]2O[C@@]3(O)C(=O)C[C@@H](C)O[C@H]3O[C@@H]2[C@H]1O` [Spectinomycin] + Cc1cc(NS(=O)(=O)c2ccc(N)cc2)no1 [Sulfamethoxazol] are -0.0406, 0.0687, -0.0374 and -0.0866.
The matching figures for `CN[C@@H]1[C@H](O)[C@H](NC)[C@H]2O[C@@]3(O)C(=O)C[C@@H](C)O[C@H]3O[C@@H]2[C@H]1O` [Spectinomycin] + Oc1cc(Cl)ccc1Oc1ccc(Cl)cc1Cl [Triclosan]: -0.0762, 0.0626, 0.0557 and -0.0648.
Turning to `CN[C@@H]1[C@H](O[C@H]2[C@H](O[C@H]3[C@H](O)[C@@H](O)[C@H](N=C(N)N)[C@@H](O)[C@@H]3N=C(N)N)O[C@@H](C)[C@]2(O)C=O)O[C@@H](CO)[C@H](O)[C@H]1O` [Streptomycin] + CC[C@H]1OC(=O)[C@H](C)C(=O)[C@H](C)[C@@H](O[C@@H]2O[C@H](C)C[C@H](N(C)C)[C@H]2O)[C@](C)(OC)C[C@@H](C)C(=O)[C@H](C)[C@H]2N(CCCCn3cnc(-c4cccnc4)c3)C(=O)O[C@]12C [Telithromycin], the Bliss interaction score with B. subtilis 168 was 0.0819; in the assay on S. aureus Newman it was -0.109; with S. pneumoniae D39V, -0.0487; in the assay with S. aureus DSM 20231, 0.0793.
In the case of `CN[C@@H]1[C@H](O[C@H]2[C@H](O[C@H]3[C@H](O)[C@@H](O)[C@H](N=C(N)N)[C@@H](O)[C@@H]3N=C(N)N)O[C@@H](C)[C@]2(O)C=O)O[C@@H](CO)[C@H](O)[C@H]1O` [Streptomycin] + Cc1cc(NS(=O)(=O)c2ccc(N)cc2)no1 [Sulfamethoxazol], the Bliss interaction score with B. subtilis 168 was -0.126; with S. aureus Newman, 0.0497; in the assay on S. pneumoniae D39V, 0.0624; with S. aureus DSM 20231 it was 0.0929.
On the same counts, the results for `CN[C@@H]1[C@H](O[C@H]2[C@H](O[C@H]3[C@H](O)[C@@H](O)[C@H](N=C(N)N)[C@@H](O)[C@@H]3N=C(N)N)O[C@@H](C)[C@]2(O)C=O)O[C@@H](CO)[C@H](O)[C@H]1O` [Streptomycin] + Oc1cc(Cl)ccc1Oc1ccc(Cl)cc1Cl [Triclosan] are -0.249, -0.0312, 0.0606 and -0.06.

Values taken from the supplement of paper PMC10627819.
